{"source": "patent US7625875B2", "about": "(priority 2002, dated 2009)", "key": {"WNV": {"tested_on": "WNV", "assay": "microbe, parasite or virus in culture", "format": "cell-based, West Nile virus", "details": "West Nile virus, read-out: WNV"}, "HCV": {"tested_on": "HCV", "assay": "Clinical antiviral activity, serum HCV RNA (Amplicor HCV Monitor), val-mCyd daily for 15 days", "details": "50 mg"}}, "note": "Like-named read-outs stand apart in the source and are kept apart here."}
{"smiles": "CC(C)C(N)C(=O)OC1[C@@H](CO)O[C@@H](n2ccc(N)nc2=O)[C@@]1(C)O", "note": "(some centres unmarked) [val-mCyd, 2-Amino-3-methyl-butyric acid 5-(4-amino-2-oxo-2H-pyrimidine-1-yl)-4-hydroxy-2 hydroxy-methyl-4-methyl-tetrahydro-furan-3-yl ester]", "values": [{"measurement": "EC50", "setting": "WNV", "result": 82, "unit": "µM"}, {"measurement": "mean reduction from baseline HCV viral load", "setting": "HCV genotype 1; 8.3 mg/kg/day dose group, end of treatment (day 7)", "result": 0.83, "unit": "log10"}, {"measurement": "Change in baseline Log10 HCV RNA viral load", "setting": "HCV genotype 1; 8.3 mpk, animal 500, site 1, Day 2", "result": "−1.156", "unit": "log10"}, {"measurement": "Change in baseline Log10 HCV RNA viral load", "setting": "HCV genotype 1; 8.3 mpk, animal 500, site 1, Day 5", "result": "−0.4038", "unit": "log10"}, {"measurement": "Change in baseline Log10 HCV RNA viral load", "setting": "HCV genotype 1; 8.3 mpk, animal 500, site 1, Day 7", "result": "−0.8051", "unit": "log10"}, {"measurement": "Change in baseline Log10 HCV RNA viral load", "setting": "HCV genotype 1; 8.3 mpk, animal 500, site 2, Day 2", "result": "−1.079", "unit": "log10"}, {"measurement": "Change in baseline Log10 HCV RNA viral load", "setting": "HCV genotype 1; 8.3 mpk, animal 500, site 2, Day 5", "result": "−0.5503", "unit": "log10"}, {"measurement": "Change in baseline Log10 HCV RNA viral load", "setting": "HCV genotype 1; 8.3 mpk, animal 500, site 2, Day 7", "result": "−1.063", "unit": "log10"}, {"measurement": "Change in baseline Log10 HCV RNA viral load", "setting": "HCV genotype 1; 8.3 mpk, animal 501, site 1, Day 2", "result": "−0.2518", "unit": "log10"}, {"measurement": "Change in baseline Log10 HCV RNA viral load", "setting": "HCV genotype 1; 8.3 mpk, animal 501, site 1, Day 5", "result": "−0.3618", "unit": "log10"}, {"measurement": "Change in baseline Log10 HCV RNA viral load", "setting": "HCV genotype 1; 8.3 mpk, animal 501, site 1, Day 7", "result": "−0.4361", "unit": "log10"}, {"measurement": "Change in baseline Log10 HCV RNA viral load", "setting": "HCV genotype 1; 8.3 mpk, animal 501, site 2, Day 2", "result": "−0.452", "unit": "log10"}, {"measurement": "Change in baseline Log10 HCV RNA viral load", "setting": "HCV genotype 1; 8.3 mpk, animal 501, site 2, Day 5", "result": "−0.7125", "unit": "log10"}, {"measurement": "Change in baseline Log10 HCV RNA viral load", "setting": "HCV genotype 1; 8.3 mpk, animal 501, site 2, Day 7", "result": "−0.9003", "unit": "log10"}, {"measurement": "Change in baseline Log10 HCV RNA viral load", "setting": "HCV genotype 1; 16.6 mpk, animal 497, site 1, Day 2", "result": "−0.7215", "unit": "log10"}, {"measurement": "Change in baseline Log10 HCV RNA viral load", "setting": "HCV genotype 1; 16.6 mpk, animal 497, site 1, Day 5", "result": "−0.907", "unit": "log10"}, {"measurement": "Change in baseline Log10 HCV RNA viral load", "setting": "HCV genotype 1; 16.6 mpk, animal 497, site 1, Day 7", "result": "−1.277", "unit": "log10"}, {"measurement": "Change in baseline Log10 HCV RNA viral load", "setting": "HCV genotype 1; 16.6 mpk, animal 497, site 2, Day 2", "result": "−0.8556", "unit": "log10"}, {"measurement": "Change in baseline Log10 HCV RNA viral load", "setting": "HCV genotype 1; 16.6 mpk, animal 497, site 2, Day 5", "result": "−1.02", "unit": "log10"}, {"measurement": "Change in baseline Log10 HCV RNA viral load", "setting": "HCV genotype 1; 16.6 mpk, animal 497, site 2, Day 7", "result": "−1.514", "unit": "log10"}, {"measurement": "Change in baseline Log10 HCV RNA viral load", "setting": "HCV genotype 1; 16.6 mpk, animal 498, site 1, Day 2", "result": "−0.2947", "unit": "log10"}, {"measurement": "Change in baseline Log10 HCV RNA viral load", "setting": "HCV genotype 1; 16.6 mpk, animal 498, site 1, Day 5", "result": "−0.2814", "unit": "log10"}, {"measurement": "Change in baseline Log10 HCV RNA viral load", "setting": "HCV genotype 1; 16.6 mpk, animal 498, site 1, Day 7", "result": "−0.603", "unit": "log10"}, {"measurement": "Change in baseline Log10 HCV RNA viral load", "setting": "HCV genotype 1; 16.6 mpk, animal 498, site 2, Day 2", "result": "−0.6585", "unit": "log10"}, {"measurement": "Change in baseline Log10 HCV RNA viral load", "setting": "HCV genotype 1; 16.6 mpk, animal 498, site 2, Day 5", "result": "−0.5597", "unit": "log10"}, {"measurement": "Change in baseline Log10 HCV RNA viral load", "setting": "HCV genotype 1; 16.6 mpk, animal 498, site 2, Day 7", "result": "−0.6914", "unit": "log10"}, {"measurement": "HCV viral load", "setting": "HCV genotype 1; animal 497, site 2, day 7, pretreatment 535,000", "result": "16,500 genomes per ml"}, {"measurement": "HCV RNA in Log10 scale, mean", "setting": "HCV; Day 1 (baseline)", "result": 6.72, "unit": "log10"}, {"measurement": "HCV RNA in Log10 scale, median", "setting": "HCV; Day 1 (baseline)", "result": 6.69, "unit": "log10"}, {"measurement": "Change from baseline (Day 1) in Log10 HCV RNA, mean", "setting": "HCV; Day 2", "result": "−0.13", "unit": "log10"}, {"measurement": "Change from baseline (Day 1) in Log10 HCV RNA, median", "setting": "HCV; Day 2", "result": "−0.07", "unit": "log10"}, {"measurement": "HCV RNA in Log10 scale, mean", "setting": "HCV; Day 2", "result": 6.60, "unit": "log10"}, {"measurement": "HCV RNA in Log10 scale, median", "setting": "HCV; Day 2", "result": 6.58, "unit": "log10"}, {"measurement": "Change from baseline (Day 1) in Log10 HCV RNA, mean", "setting": "HCV; Day 4", "result": "−0.16", "unit": "log10"}, {"measurement": "Change from baseline (Day 1) in Log10 HCV RNA, median", "setting": "HCV; Day 4", "result": "−0.13", "unit": "log10"}, {"measurement": "HCV RNA in Log10 scale, mean", "setting": "HCV; Day 4", "result": 6.56, "unit": "log10"}, {"measurement": "HCV RNA in Log10 scale, median", "setting": "HCV; Day 4", "result": 6.55, "unit": "log10"}, {"measurement": "Change from baseline (Day 1) in Log10 HCV RNA, mean", "setting": "HCV; Day 8", "result": "−0.11", "unit": "log10"}, {"measurement": "Change from baseline (Day 1) in Log10 HCV RNA, median", "setting": "HCV; Day 8", "result": "−0.06", "unit": "log10"}, {"measurement": "HCV RNA in Log10 scale, mean", "setting": "HCV; Day 8", "result": 6.62, "unit": "log10"}, {"measurement": "HCV RNA in Log10 scale, median", "setting": "HCV; Day 8", "result": 6.56, "unit": "log10"}, {"measurement": "Change from baseline (Day 1) in Log10 HCV RNA, mean", "setting": "HCV; Day 11", "result": "−0.26", "unit": "log10"}, {"measurement": "Change from baseline (Day 1) in Log10 HCV RNA, median", "setting": "HCV; Day 11", "result": "−0.26", "unit": "log10"}, {"measurement": "HCV RNA in Log10 scale, mean", "setting": "HCV; Day 11", "result": 6.47, "unit": "log10"}, {"measurement": "HCV RNA in Log10 scale, median", "setting": "HCV; Day 11", "result": 6.46, "unit": "log10"}, {"measurement": "Change from baseline (Day 1) in Log10 HCV RNA, mean", "setting": "HCV; Day 15", "result": "−0.15", "unit": "log10"}, {"measurement": "Change from baseline (Day 1) in Log10 HCV RNA, median", "setting": "HCV; Day 15", "result": "−0.10", "unit": "log10"}, {"measurement": "HCV RNA in Log10 scale, mean", "setting": "HCV; Day 15", "result": 6.57, "unit": "log10"}, {"measurement": "HCV RNA in Log10 scale, median", "setting": "HCV; Day 15", "result": 6.57, "unit": "log10"}, {"measurement": "Change from baseline (Day 1) in Log10 HCV RNA, mean", "setting": "HCV; Day 16", "result": "−0.15", "unit": "log10"}, {"measurement": "Change from baseline (Day 1) in Log10 HCV RNA, median", "setting": "HCV; Day 16", "result": "−0.13", "unit": "log10"}, {"measurement": "HCV RNA in Log10 scale, mean", "setting": "HCV; Day 16", "result": 6.57, "unit": "log10"}, {"measurement": "HCV RNA in Log10 scale, median", "setting": "HCV; Day 16", "result": 6.45, "unit": "log10"}, {"measurement": "Change from baseline (Day 1) in Log10 HCV RNA, mean", "setting": "HCV; Day 17", "result": "−0.18", "unit": "log10"}, {"measurement": "Change from baseline (Day 1) in Log10 HCV RNA, median", "setting": "HCV; Day 17", "result": "−0.21", "unit": "log10"}, {"measurement": "HCV RNA in Log10 scale, mean", "setting": "HCV; Day 17", "result": 6.54, "unit": "log10"}]}
